From article PMC8274846, “Biogenic nanoporous silicon carrier improves the efficacy of buparvaquone against resistant visceral leishmaniasis” (PLoS Neglected Tropical Diseases, 2021)
Where “and” joins values, the source holds several entries; their conditions need not be identical. Equal values may be shown once.

How the values were obtained:
[1] = tested on: axenic L.donovani amastigotes, wild-type AG83; assay: Antileishmanial activity against axenic amastigotes, wild-type AG83; assay type: cell-based
Method: (§1) L. donovani AG83 (MHOM/IN/83/AG83) and GE1 (MHOM/IN/80/GE1F8R) promastigotes were routinely grown in medium 199 supplemented with 10% heat-inactivated fetal bovine serum, 2 mM L-glutamine, 20 mM HEPES, 100 U/mL penicillin, and 100 μg/mL streptomycin at 25°C. L. donovani amastigote forms were grown and maintained as described previously. Axenic amastigote forms were derived from promastigote forms by culturing them in MMA/20 (medium for axenic amastigote) at pH 5.5 [22]. Axenically grown amastigotes were maintained by sub-culture of 10^5 parasites/ml repeated every fifth day under experimental conditions of 37°C temperature and 5% CO2 environment.
(§2) The antileishmanial activity of the drug specimens (BPQ+NP, BPQ, SSG, AmB, PMM, and MF) against the axenic amastigotes were evaluated based on the IC50 value, which is the concentration of the specimen required to kill 50% of the parasites. The parasites were first seeded into 96-well plates at a density of 1x10^5 amastigotes/well in 200 μL medium. Then, 10 μL of the drug candidates at various concentrations were added and the final volume was adjusted to […] medium. The number of amastigotes in the wells treated with each specimen were compared to those in the untreated control wells.
(§3) Microscopic examinations were performed in duplicates with various concentrations of pure drugs or buparvaquone-loaded nanoparticles and also for control wells. The amastigotes cells were counted for all cases using a hemocytometer. The mean of the control wells was considered as 100% survival. The counts in the treated wells at various concentrations were converted into percentages. Giemsa-stained slides of the macrophages infected with amastigotes were observed under a light microscope. Then the numbers of amastigotes and infected macrophages per 100 cells were counted for each slide. The percentage (%) of inhibition was calculated by using the equation %ofinhibition=C−T/C×100, (2) where C is the number of amastigotes/infected macrophages per 100 cells in the control well and T is the number of amastigotes/infected macrophages per 100 cells in the drug-treated well.
(§4) Origin version 6.1 software was used to calculate IC50 and CC50 values by plotting a graph of the percentage of inhibition at various concentrations of all the observations.

[2] = tested on: wild-type L. donovani AG83 amastigotes in spleen; assay: Culture microtitration assay (CMA) in infected mice; assay type: in vivo, BALB/c mice; conditions: for Spleen: 7 days post-treatment, n = 5; for Suppression (%) of L. donovani amastigote burden in spleen: CMA method, 2 mg/kg
Method: The infected control group was injected with 0.2 mL of sterile water during the entire dosing period. Seven days post-treatment, the animals were sacrificed, and their spleens were aseptically removed and weighed for determination of amastigote burden by microtitration assay as described elsewhere. Wells were examined for viable and motile promastigotes. The final titer was the last dilution for which the well contained at least one parasite. […] (5) .

[3] = tested on: peritoneal macrophages; design: method as in earlier work; conditions: ref 32 (Reimao et al.); cited from earlier work
[4] = tested on: L. infantum infection; design: method as in earlier work; conditions: against L. infantum infection; ref 32 (Reimao et al.); cited from earlier work
[5] = tested on: axenic L.donovani amastigotes, GE1 (isolated strain resistant to SSG); assay: Antileishmanial activity against axenic amastigotes, GE1; assay type: cell-based
Method: as §1, §2, §3, §4

[6] = tested on: intracellular L.donovani amastigotes, GE1, in macrophages; assay: Antileishmanial activity against intracellular amastigotes, GE1; assay type: cell-based
Method: The intracellular antileishmanial activity was evaluated based on the reduction in the amastigote numbers in the infected macrophages after the treatment. The method was adapted from our previous work. Briefly, 4x10^6 amastigotes in 500 μL of RPMI-1640 suspension were added to each well containing macrophages with the macrophage: parasite ratio of 1:10. The plates were incubated for 4 h at 37°C in 5% CO2. After the parasite internalization period, cells were washed at least twice with fresh media to remove non-phagocytosed parasites. Then, the drug specimen suspended in 1 mL RPMI-1640 was added, and the samples were incubated for 72 h at 37°C in 5% CO2. The medium was aspirated, the coverslips were removed, and then fixed with methanol and air-dried. After staining with Giemsa, 100 cells on the glass discs were counted. Three independent experiments in quadruplicate for each concentration were performed.
as §3, §4

[7] = design: method as in PMID 1289357, PMID 14695832; conditions: cited from earlier work
[8] = Cytotoxicity studies (CC50) on peritoneal macrophages; assay type: cell-based, BALB/c mice; conditions: BALB/c, mouse, resident peritoneal macrophages, 48 h exposure, mean ± σ, n = 3
Method: (§5) Resident peritoneal macrophages were isolated from BALB/c mice. For the isolation, 1.5 mL of sterile thioglycolate medium was injected into the peritoneal cavity to induce non-infectious inflammation. Animals were sacrificed after 5 days, and peritoneal exudates were harvested by intraperitoneal lavage. Cold RPMI (6 mL) was injected into the peritoneal cavity. After 10 min, the injected fluid was withdrawn by the same syringe. From each animal, approximately 3-4 mL of medium was recovered. After centrifugation at 200 g for 15 min, macrophages were collected. […] The cytotoxicity of the drug specimen was evaluated by the CC50 value, which is the concentration required to kill 50% of the host cell population. Macrophages were first isolated from peritoneal lavage as described above. The cells were seeded into 96-well plates at 1x10^6 cells/mL in 200 μL of RPMI-1640 supplemented with 10% FCS, 20 mM L-glutamine, 16 mM NaHCO3, penicillin (50 U/mL) and streptomycin (50 μg/ mL) at 37°C in 5% CO2 for 4 h for adherence. To remove the non-adherent cells, each plate was washed two times with phosphate buffer saline (pH 7.2). […] Microscopic examinations were performed in duplicates with various concentrations of pure drugs or buparvaquone-loaded nanoparticles and also for control wells. The amastigotes cells were counted for all cases using a hemocytometer. The mean of the control wells was considered as 100% survival. The counts in the treated wells at various concentrations were converted into percentages. Giemsa-stained slides of the macrophages infected with amastigotes were observed under a light microscope. Then the numbers of amastigotes and infected macrophages per 100 cells were counted for each slide. The percentage (%) of inhibition was calculated by using the equation %[…]×100, (2) where C is the number of amastigotes/infected macrophages per 100 cells in the control well and T is the number of amastigotes/infected macrophages per 100 cells in the drug-treated well.

[9] = tested on: resident peritoneal macrophages; assay: as above; assay type: cell-based, BALB/c mice; conditions: 48 h exposure, mean ± σ, n = 3, read-out: CC50
Method: as §5

[10] = Leishmania donovani, axenic amastigotes, mean ± σ, n = 4
[11] = 2 doses of 2 mg/kg i.p. at 5 days interval
[12] = 4 doses of 2 mg/kg i.p. at 5 days interval

CC(C)(C)[C@H]1CC[C@H](CC2=C(O)C(=O)c3ccccc3C2=O)CC1 [BPQ, Buparvaquone]
IC50 [1, 10]: 3.4 ± 0.3 µM | Fold higher axenic IC50 of pure BPQ than BPQ+NP ([1]; wild-type AG83): 3 fold | Spleen [2, 11]: 140 ± 22 mg | Suppression (%) of L. donovani amastigote burden in spleen [2, 11]: 52% and 52 ± 3 % | Spleen [2, 12]: 131 ± 18 mg | Suppression (%) of L. donovani amastigote burden in spleen [2, 12]: 64% and 64 ± 4 % | Reduction of parasite burden (CMA) ([2]; spleen, 2 mg/kg i.p., 2 or 4 doses at 5 days interval): 50% | CC50 [3]: > 230 µM | IC50 [4]: 1.5 µM | Fold higher axenic IC50 of pure BPQ than BPQ+NP ([5]; GE1): 4 fold | Resistance index (RI), GE1 ([5]; IC50 against drug resistant strain / IC50 against wild-type strain (AG83), axenic): 1.2 ± 1.4 | IC50 [5, 10]: 4.1 ± 0.8 µM | Selectivity index (SI), GE1 ([6]; CC50/IC50, intracellular): 90 ± 10 | Fold larger cellular IC50 of pure BPQ than BPQ+NP ([6]; GE1): 4 fold | IC50 ([6]; Leishmania donovani, Macrophage, intracellular amastigotes, 72 h, mean ± σ, n = 4, read-out: Cellular IC50, GE1): 3.8 ± 0.4 µM | Aqueous solubility [7]: < 0.03 µg/mL | CC50 at 48 h [8]: > 300 µM | CC50 [9]: 330 ± 30 µM
